From patent publication US11053219B2, “Substituted pyridines as TYK2 inhibitors” (FronThera U.S. Pharmaceuticals LLC, priority 2018, dated 2021) come the findings set out here.

One assay addresses TYK2 (JH2 domain) (Homo sapiens (Human), UniProt P29597). The assay can be described thus: TYK2 JH2 domain binding assay (DiscoverX KINOMEscan). As to conditions: 11-point 3-fold dilution, duplicate.
Assay [1] has as its system IL12-induced p-STAT4 in human PBMC. As to the kind of experiment: IL-12 induced pSTAT4 in human PBMC. Type of assay: cell-based. The note with it: read-out: p-STAT4 IC50.
Protocol: Cells were seeded in a round bottom 96-well plate at the concentration of 200,000 cells/well. A 10-point dilution series of test compound (top dose 10 uM, 1:5 dilution) was added to the well using the liquid dispenser (Tecan D300e) and incubated for 1 hour at 37 C. Then human IL-12 recombinant protein (R&D Systems) was added to the well at the final concentration of 10 ng/ml and incubated for 15 minutes at 37 C. Cell lysates were prepared and analyzed by Phospho STAT4 (Tyr693) Kit (Meso Scale Discovery) following manufacturer's protocol.
For calculation of the inhibition rate, the relative pSTAT4 signal of each well=pSTAT4 signal of each well−the average pSTAT4 signal of baseline. The inhibition %=(the average pSTAT4 signal of IL-12 treatment wells−the relative of pSTAT4 signal in each compound containing well)/the average pSTAT4 signal of IL-12 treatment wells*100%
(§1) The curve was plotted as the inhibition % (y-axis) vs. compounds concentration (x-axis) and was fitted with log(inhibitor) vs. normalized response—Variable slope by GraphPad Prism7.0.
Assay [2] deals with INFα induced pSTAT5 in human PBMC. As to the kind of experiment: INFα induced pSTAT5 in human PBMC. The format is cell-based. The note with it: read-out: p-STAT5 IC50.
Protocol: Cells were seeded in a round bottom 96-well plate at the concentration of 200,000 cells/well. A 10-point dilution series of test compound (top dose 10 uM, 1:5 dilution) was added to the well using the liquid dispenser (Tecan D300e) and incubated for 1 hour at 37 C. Then human INFα recombinant protein (R&D Systems) was added to the well at the final concentration of 5000 units/ml and incubated for 15 minutes at 37 C. Cell lysates were prepared and analyzed by Phospho STAT3 (Tyr705) cellular kit (Cisbio) or Phospho STAT5 (Tyr693) Kit (Meso Scale Discovery) following manufacturer's protocol.
For calculation of the inhibition rate, the relative pSTAT signal of each well=pSTAT signal of each well−the average pSTAT signal of baseline. The inhibition %=(the average pSTAT signal of INFα treatment wells−the relative of pSTAT signal in each compound containing well)/the average pSTAT signal of INFα treatment wells*100%
as §1

Where two headings read alike, the source gives them in different places.

Chain of TYK2 (JH2 domain) (P29597 589-875): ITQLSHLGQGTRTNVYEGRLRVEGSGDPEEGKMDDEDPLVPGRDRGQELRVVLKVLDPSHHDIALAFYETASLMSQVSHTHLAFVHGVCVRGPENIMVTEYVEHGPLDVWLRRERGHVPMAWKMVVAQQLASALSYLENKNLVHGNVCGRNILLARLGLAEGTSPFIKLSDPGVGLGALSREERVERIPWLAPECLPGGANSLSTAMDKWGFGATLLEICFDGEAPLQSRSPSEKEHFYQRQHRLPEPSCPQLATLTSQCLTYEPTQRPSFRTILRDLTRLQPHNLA
Protocol for TYK2 (JH2 domain): The assay is performed by combining three components: DNA-tagged kinase; immobilized ligand; and a test compound. The ability of the test compound to compete with the immobilized ligand is measured via quantitative PCR of the DNA tag.
The liganded beads were blocked with excess biotin and washed with blocking buffer (SeaBlock (Pierce), 1% BSA, 0.05% Tween 20, 1 mM DTT) to remove unbound ligand and to reduce non-specific binding. […] Test compounds were prepared as 111× stocks in 100% DMSO. All test compounds were shipped to DiscoverX in DMSO with concentration of 10 mM. Kds were determined using an 11-point 3-fold compound dilution series with three DMSO control points. Each compound was tested in duplicate. […] The compounds were then diluted directly into the assays such that the final concentration of DMSO was 0.9%. All reactions performed in polypropylene 384-well plate. Each was a final volume of 0.02 ml. […] The kinase concentration in the eluates was measured by qPCR.
The amount of kinase measured by qPCR (Signal; y-axis) is plotted against the corresponding compound concentration in nM in log 10 scale (x-axis). Binding constants (Kds) were calculated with a standard dose-response curve using the Hill equation:
The Hill Slope was set to −1.
Curves were fitted using anon-linear least square fit with the Levenberg-Marquardt algorithm.

With `[2H]C([2H])([2H])NC(=O)c1nnc(N2CCN(C(C)C)C2=O)cc1Nc1cccc(-c2ncn(C)n2)c1OC` [Example 6, 6-(3-isopropyl-2-oxo-imidazolidin-1-yl)-4-[2-methoxy-3-(1-methyl-1,2,4-triazol-3-yl)anilino]-N-(trideuteriomethyl)pyridazine-3-carboxamide], the equilibrium dissociation constant (Kd) on TYK2 (JH2 domain) was at most 1 nM. Further, the IC50 was below 100 nM in assay [1] (Homo sapiens, PBMC) and below 100 nM in assay [2] (human PBMC, INFα 5000 units/ml).
Regarding `[2H]C([2H])([2H])NC(=O)c1nnc(N2CCN(C3CC(F)(F)C3)C2=O)cc1Nc1cccc(-c2ncn(C)n2)c1OC` [Example 10, 6-[3-(3,3-difluorocyclobutyl)-2-oxo-imidazolidin-1-yl]-4-[2-methoxy-3-(1-methyl-1,2,4-triazol-3-yl)anilino]-N-(trideuteriomethyl)pyridazine-3-carboxamide], the Kd at TYK2 (JH2 domain) was at most 1 nM. Further, the IC50 was below 100 nM in assay [1] (human PBMC, IL-12 10 ng/ml) and below 100 nM in assay [2] (human PBMC, INFα 5000 units/ml).
Take `[2H]C([2H])([2H])NC(=O)c1nnc(N2CCN(C3CCC3)C2=O)cc1Nc1cccc(-c2ncn(C)n2)c1OC` [Example 11, 6-(3-cyclobutyl-2-oxo-imidazolidin-1-yl)-4-[2-methoxy-3-(1-methyl-1,2,4-triazol-3-yl)anilino]-N-(trideuteriomethyl)pyridazine-3-carboxamide]: the Kd at TYK2 (JH2 domain) was at most 1 nM. Besides, the IC50 in assay [1] (human PBMC, IL-12 10 ng/ml) is below 100 nM; in assay [2] (human PBMC, INFα 5000 units/ml), below 100 nM.
`[2H]C([2H])([2H])NC(=O)c1nnc(N2CCN(C(C)C)C2=O)cc1Nc1cccc(-c2ncn(C)n2)c1OC([2H])([2H])[2H]` [Example 14, 6-(3-isopropyl-2-oxo-imidazolidin-1-yl)-4-[3-(1-methyl-1,2,4-triazol-3-yl)-2-(trideuteriomethoxy)anilino]-N-(trideuteriomethyl)pyridazine-3-carboxamide] had a Kd on TYK2 (JH2 domain) of at most 1 nM. The IC50 in assay [1] (human PBMC, IL-12 10 ng/ml) was below 100 nM; in assay [2] (human PBMC, INFα 5000 units/ml) it was below 100 nM.
The compound `[2H]C([2H])([2H])NC(=O)c1nnc(N2CCN(C(C)C)C2=O)cc1Nc1cccc(-c2ncn(C([2H])([2H])[2H])n2)c1OC` [Example 15, 6-(3-isopropyl-2-oxo-imidazolidin-1-yl)-4-[2-methoxy-3-[1-(trideuteriomethyl)-1,2,4-triazol-3-yl]anilino]-N-(trideuteriomethyl)pyridazine-3-carboxamide] had a Kd at TYK2 (JH2 domain) of at most 1 nM. Moreover, the IC50 in assay [1] (human PBMC, IL-12 10 ng/ml) is below 100 nM; in assay [2] (human PBMC, INFα 5000 units/ml), below 100 nM.
On to `[2H]C([2H])([2H])NC(=O)c1nnc(N2CCN(C3(C)COC3)C2=O)cc1Nc1cccc(-c2ncn(C)n2)c1OC` [Example 16, 4-[2-methoxy-3-(1-methyl-1,2,4-triazol-3-yl)anilino]-6-[3-(3-methyloxetan-3-yl)-2-oxo-imidazolidin-1-yl]-N-(trideuteriomethyl)pyridazine-3-carboxamide], for which the Kd on TYK2 (JH2 domain) was at most 1 nM. In addition, the 50% inhibitory concentration (IC50) in assay [1] (human PBMC, IL-12 10 ng/ml) was below 100 nM; in assay [2] (human PBMC, INFα 5000 units/ml), below 100 nM.
For `[2H]C([2H])([2H])NC(=O)c1nnc(N2CCN(C3CCC3)C2=O)cc1Nc1cccc(-c2ncn(C([2H])([2H])[2H])n2)c1OC` [Example 22, 6-(3-cyclobutyl-2-oxo-imidazolidin-1-yl)-4-[2-methoxy-3-[1-(trideuteriomethyl)-1,2,4-triazol-3-yl]anilino]-N-(trideuteriomethyl)pyridazine-3-carboxamide], the Kd on TYK2 (JH2 domain) is at most 1 nM. Besides, the IC50 in assay [1] (human PBMC, IL-12 10 ng/ml) is below 100 nM.
With `COc1c(Nc2cc(NC(=O)C3CC3)ncc2C(=O)C2CC2)cccc1-c1ncn(C)n1` [Example 27], the IC50 in assay [1] (Homo sapiens, PBMC) is below 100 nM; in assay [2] (Homo sapiens, PBMC), below 100 nM.
Compound `[2H]C([2H])([2H])NC(=O)c1nnc(NC(=O)N2CCCC2)cc1Nc1cccc(-c2ncn(C)n2)c1OC` [Example 29] yielded a Kd at TYK2 (JH2 domain) of at most 1 nM. Further, the IC50 in assay [1] (Homo sapiens, PBMC) was below 100 nM.
For `CNC(=O)c1nnc(NC(=O)N2CCC2)cc1Nc1cccc(-c2ncn(C)n2)c1OC` [Example 30], at TYK2 (JH2 domain), the Kd was at most 1 nM. Moreover, in assay [1] (human PBMC, IL-12 10 ng/ml), the IC50 was below 100 nM.
As to `[2H]C([2H])([2H])NC(=O)c1nnc(NC(=O)N2CC3(CCC3)C2)cc1Nc1cccc(-c2ncn(C)n2)c1OC` [Example 32], the equilibrium dissociation constant (Kd) at TYK2 (JH2 domain) was at most 1 nM. In addition, the IC50 in assay [1] (Homo sapiens, PBMC) was below 100 nM.
At TYK2 (JH2 domain), `COc1c(Nc2cc(NC(=O)N3CCC3)ncc2C(=O)C2CC2)cccc1-c1ncn(C)n1` [Example 33] gave a Kd of at most 1 nM. Moreover, the IC50 in assay [1] (Homo sapiens, PBMC) was below 100 nM.
On to `COc1c(Nc2cc(NC(=O)C(C)C)ncc2C(=O)C2CC2)cccc1-c1ncn(C)n1` [Example 36], for which the Kd at TYK2 (JH2 domain) was at most 1 nM. Moreover, the IC50 in assay [1] (human PBMC, IL-12 10 ng/ml) was below 100 nM.
On TYK2 (JH2 domain), `COc1c(Nc2cc(Nc3ccccn3)ncc2C(=O)C2CC2)cccc1-c1ncn(C)n1` [Example 37] displayed a Kd of at most 1 nM. The IC50 in assay [1] (human PBMC, IL-12 10 ng/ml) was below 100 nM; in assay [2] (human PBMC, INFα 5000 units/ml) it was below 100 nM.
In turn, `[2H]C([2H])([2H])NC(=O)c1nnc(NC(=O)N2CC(F)(F)C2)cc1Nc1cccc(-c2ncn(C)n2)c1OC` [Example 47] yielded a Kd at TYK2 (JH2 domain) of at most 1 nM. In assay [1] (human PBMC, IL-12 10 ng/ml), the IC50 was below 100 nM.
For `[2H]C([2H])([2H])NC(=O)c1cnc(N2CCN(C(C)C)C2=O)cc1Nc1cccc(-c2ncn(C)n2)c1OC` [Example 48], in that order: at most 1 nM and below 100 nM.
For the compound `[2H]C([2H])([2H])NC(=O)c1nnc(NC(=O)N2CC(C)C2)cc1Nc1cccc(-c2ncn(C)n2)c1OC` [Example 49], the Kd on TYK2 (JH2 domain) was at most 1 nM. In addition, the IC50 in assay [1] (human PBMC, IL-12 10 ng/ml) was below 100 nM; in assay [2] (human PBMC, INFα 5000 units/ml), below 100 nM.
For the compound `[2H]C([2H])([2H])NC(=O)c1nnc(NC(=O)N2CCC2)cc1Nc1cccc(-c2ncn(C)n2)c1OC` [Example 50], the Kd on TYK2 (JH2 domain) was at most 1 nM. In addition, the IC50 in assay [1] (human PBMC, IL-12 10 ng/ml) was below 100 nM.
Consider `COc1c(Nc2cc(NC(=O)C3CC3)ncc2C(=O)C2CC2)cccc1-c1nnn(C)n1` [Example 51], for which the Kd on TYK2 (JH2 domain) is at most 1 nM. For the same compound, the IC50 in assay [1] (human PBMC, IL-12 10 ng/ml) was below 100 nM; in assay [2] (human PBMC, INFα 5000 units/ml) it was below 100 nM.
For `COc1c(Nc2cc(Nc3ccncn3)ncc2C(=O)C2CC2)cccc1-c1ncn(C)n1` [Example 52], the Kd at TYK2 (JH2 domain) is at most 1 nM. In addition, the IC50 in assay [1] (human PBMC, IL-12 10 ng/ml) was below 100 nM.
Turning to `[2H]C([2H])([2H])n1cnc(-c2cccc(Nc3cc(NC(=O)C4CC4)ncc3C(=O)C3CC3)c2OC)n1` [Example 54], the IC50 in assay [1] (human PBMC, IL-12 10 ng/ml) is below 100 nM; in assay [2] (human PBMC, INFα 5000 units/ml), below 100 nM.
For `[2H]C([2H])([2H])NC(=O)c1nnc(N2CCN(C3C[C@@H]3F)C2=O)cc1Nc1cccc(-c2ncn(C)n2)c1OC` (stereo partly shown) [Example 78], the Kd at TYK2 (JH2 domain) is at most 1 nM. The IC50 in assay [1] (human PBMC, IL-12 10 ng/ml) is below 100 nM.
In turn, `[2H]C([2H])([2H])NC(=O)c1nnc(N2CCN(C(C)CO)C2=O)cc1Nc1cccc(-c2ncn(C)n2)c1OC` (stereo not shown) [Example 85] gave a Kd on TYK2 (JH2 domain) of at most 1 nM. In assay [1] (human PBMC, IL-12 10 ng/ml), the IC50 lay in the range of 100 to 1000 nM.
Compound `[2H]C([2H])([2H])NC(=O)c1nnc(N2CCN(C3(C)CC3)C2=O)cc1Nc1cccc(-c2ncn(C)n2)c1OC` [Example 88] gave a Kd on TYK2 (JH2 domain) of at most 1 nM. The IC50 in assay [1] (human PBMC, IL-12 10 ng/ml) was below 100 nM.
Compound `[2H]C([2H])([2H])NC(=O)c1nnc(N2CCN(C(C)(C)C)C2=O)cc1Nc1cccc(-c2ncn(C)n2)c1OC` [Example 89] returned a Kd at TYK2 (JH2 domain) of at most 1 nM. Besides, the IC50 in assay [1] (human PBMC, IL-12 10 ng/ml) was below 100 nM; in assay [2] (human PBMC, INFα 5000 units/ml) it was below 100 nM.
On TYK2 (JH2 domain), `[2H]C([2H])([2H])NC(=O)c1nnc(N2CCN(CCCC)C2=O)cc1Nc1cccc(-c2ncn(C)n2)c1OC` [Example 91] showed a Kd of at most 1 nM. The half-maximal inhibitory concentration (IC50) in assay [1] (human PBMC, IL-12 10 ng/ml) was below 100 nM.
As to `[2H]C([2H])([2H])NC(=O)c1nnc(N2CCN(C3CCC(F)(F)CC3)C2=O)cc1Nc1cccc(-c2ncn(C)n2)c1OC` [Example 94], the Kd on TYK2 (JH2 domain) was at most 1 nM. In assay [1] (human PBMC, IL-12 10 ng/ml), the IC50 was below 100 nM.
On TYK2 (JH2 domain), `[2H]C([2H])([2H])NC(=O)c1nnc(N2CCN(C3(C#N)CC3)C2=O)cc1Nc1cccc(-c2ncn(C)n2)c1OC` [Example 95] had a Kd of at most 1 nM. Moreover, in assay [1] (human PBMC, IL-12 10 ng/ml), the IC50 is below 100 nM.
Compound `[2H]C([2H])([2H])NC(=O)c1nnc(N2CCN(CC3CCC3)C2=O)cc1Nc1cccc(-c2ncn(C)n2)c1OC` [Example 96] showed a Kd on TYK2 (JH2 domain) of at most 1 nM. In assay [1] (human PBMC, IL-12 10 ng/ml), the IC50 is below 100 nM.
In the case of `[2H]C([2H])([2H])NC(=O)c1nnc(N2CCN(C3CCCOC3)C2=O)cc1Nc1cccc(-c2ncn(C)n2)c1OC` (stereo not shown) [Example 98], the Kd on TYK2 (JH2 domain) is at most 1 nM. In assay [1] (human PBMC, IL-12 10 ng/ml), the IC50 is below 100 nM.
Compound `[2H]C([2H])([2H])NC(=O)c1nnc(N2CCN(CCC)C2=O)cc1Nc1cccc(-c2ncn(C)n2)c1OC` [Example 99] displayed a Kd at TYK2 (JH2 domain) of at most 1 nM. The IC50 in assay [1] (human PBMC, IL-12 10 ng/ml) was below 100 nM.
At TYK2 (JH2 domain), `[2H]C([2H])([2H])NC(=O)c1nnc(N2CCN(C3CC(C)C3)C2=O)cc1Nc1cccc(-c2ncn(C)n2)c1OC` (stereo not shown) [Example 100] displayed a Kd of at most 1 nM. In assay [1] (human PBMC, IL-12 10 ng/ml), the concentration for half-maximal inhibition (IC50) was below 100 nM.
For `[2H]C([2H])([2H])NC(=O)c1nnc(N2CCN(C(C([2H])([2H])[2H])C([2H])([2H])[2H])C2=O)cc1Nc1cccc(-c2ncn(C)n2)c1OC` [Example 103], in that order: at most 1 nM and below 100 nM.
